Laboratory results from paper PMC5218480 (PLoS ONE, 2017).

System: MV-4-11 cells
Assay: Gene expression microarray analysis (Affymetrix PrimeView) and GSEA
Assay type: cell-based, human
Set-up: RFU PODN (11730768_x_at) / Fold change /veh PODN (11730768_x_at) / RFU LINC00158 (11744669_a_at) / Fold change /veh LINC00158 (11744669_a_at) / RFU DUSP10 (11751237_a_at) / Fold change /veh DUSP10 (11751237_a_at) / RFU ID3 (11757404_x_at) / Fold change /veh ID3 (11757404_x_at) / RFU PLEKHG5 (11737974_s_at) / Fold change /veh PLEKHG5 (11737974_s_at) / RFU LRRC4B (11730491_at) / Fold change /veh LRRC4B (11730491_at) / RFU GIMAP4 (11747438_a_at) / Fold change /veh GIMAP4 (11747438_a_at) / RFU KRT8 (11758183_x_at) / Fold change /veh KRT8 (11758183_x_at) / RFU CNN1 (11734310_a_at) / Fold change /veh CNN1 (11734310_a_at) / RFU VPS37D (11726825_at) / Fold change /veh VPS37D (11726825_at) / RFU C10orf10 (11716522_x_at) / Fold change /veh C10orf10 (11716522_x_at) / RFU KIR2DL2 /// KIR2DL4 /// KIR2DL5A /// KIR2DL5B /// KIR2DS1 /// KIR2DS2 /// KIR2DS3 /// KIR2DS4 /// KIR3DL3 /// KIR3DL3 /// KIR3DS1 (11738374_at) / Fold change /veh KIR2DL2 /// KIR2DL4 /// KIR2DL5A /// KIR2DL5B /// KIR2DS1 /// KIR2DS2 /// KIR2DS3 /// KIR2DS4 /// KIR3DL3 /// KIR3DL3 /// KIR3DS1 (11738374_at) / RFU C1QL1 (11718748_at) / Fold change /veh C1QL1 (11718748_at) / RFU TMPRSS4 (11747572_a_at) / Fold change /veh TMPRSS4 (11747572_a_at) / RFU HAMP (11756126_x_at) / Fold change /veh HAMP (11756126_x_at) / RFU RNFT2 (11725882_a_at) / Fold change /veh RNFT2 (11725882_a_at) / RFU NR4A2 (11747474_a_at) / Fold change /veh NR4A2 (11747474_a_at) / RFU ABCC12 (11746883_a_at) / Fold change /veh ABCC12 (11746883_a_at) / RFU TMEM136 (11760407_x_at) / Fold change /veh TMEM136 (11760407_x_at) / RFU CLDN22 /// WWC2 (11732394_at) / Fold change /veh CLDN22 /// WWC2 (11732394_at) / RFU HLA-DPB1 (11760878_x_at) / Fold change /veh HLA-DPB1 (11760878_x_at) / RFU SPINT1 (11716480_a_at) / Fold change /veh SPINT1 (11716480_a_at) / RFU GAP43 (11754022_s_at) / Fold change /veh GAP43 (11754022_s_at) / RFU A4GNT (11735810_at) / Fold change /veh A4GNT (11735810_at) / RFU PRB3 (11715151_x_at) / Fold change /veh PRB3 (11715151_x_at) / RFU TUBB4B (11761932_at) / Fold change /veh TUBB4B (11761932_at) / RFU CAPN14 (11732068_a_at) / Fold change /veh CAPN14 (11732068_a_at) / RFU TMCC2 (11721928_a_at) / Fold change /veh TMCC2 (11721928_a_at) / RFU IRGQ (11745062_a_at) / Fold change /veh IRGQ (11745062_a_at) / RFU FAM174B (11720279_a_at) / Fold change /veh FAM174B (11720279_a_at) / RFU TMPRSS4 (11748680_a_at) / Fold change /veh TMPRSS4 (11748680_a_at) / RFU FAM212B (11763350_a_at) / Fold change /veh FAM212B (11763350_a_at) / RFU PLEKHG5 (11743358_a_at) / Fold change /veh PLEKHG5 (11743358_a_at) / RFU ZSCAN30 (11745921_a_at) / Fold change /veh ZSCAN30 (11745921_a_at) / RFU CMKLR1 (11741424_a_at) / Fold change /veh CMKLR1 (11741424_a_at) / RFU LOC101060620 /// MAPK8IP1 (11723275_at) / Fold change /veh LOC101060620 /// MAPK8IP1 (11723275_at) / RFU SPTSSB (11747773_x_at) / Fold change /veh SPTSSB (11747773_x_at) / RFU PRSS12 (11739890_at) / Fold change /veh PRSS12 (11739890_at) / RFU BIN1 (11741810_x_at) / Fold change /veh BIN1 (11741810_x_at) / RFU WNT11 (11732464_a_at) / Fold change /veh WNT11 (11732464_a_at) / RFU C10orf10 (11716521_a_at) / Fold change /veh C10orf10 (11716521_a_at) / RFU C5orf56 (11738089_at) / Fold change /veh C5orf56 (11738089_at) / RFU CYB561 (11721691_x_at) / Fold change /veh CYB561 (11721691_x_at) / RFU ANKRD19P (11752326_a_at) / Fold change /veh ANKRD19P (11752326_a_at) / RFU OR2T12 /// OR2T33 /// OR2T8 (11738714_s_at) / Fold change /veh OR2T12 /// OR2T33 /// OR2T8 (11738714_s_at) / RFU VCAN (11748164_a_at) / Fold change /veh VCAN (11748164_a_at) / RFU JSRP1 (11732532_at) / Fold change /veh JSRP1 (11732532_at) / RFU KRTAP10-11 (11738290_x_at) / Fold change /veh KRTAP10-11 (11738290_x_at) / RFU MYO3A (11730013_a_at) / Fold change /veh MYO3A (11730013_a_at) / RFU EBF3 (11725865_a_at) / Fold change /veh EBF3 (11725865_a_at) / RFU CAMK2N1 (11719241_x_at) / Fold change /veh CAMK2N1 (11719241_x_at) / RFU C5orf56 (11738088_a_at) / Fold change /veh C5orf56 (11738088_a_at) / RFU OLFML3 (11715873_a_at) / Fold change /veh OLFML3 (11715873_a_at) / RFU LOC100653217 /// NTM (11731650_a_at) / Fold change /veh LOC100653217 /// NTM (11731650_a_at) / RFU MAPK11 (11762145_a_at) / Fold change /veh MAPK11 (11762145_a_at) / RFU FIZ1 (11724087_x_at) / Fold change /veh FIZ1 (11724087_x_at) / RFU OASL (11726364_x_at) / Fold change /veh OASL (11726364_x_at) / RFU SOX15 (11748057_x_at) / Fold change /veh SOX15 (11748057_x_at) / RFU CD79A (11719716_a_at) / Fold change /veh CD79A (11719716_a_at) / RFU HIST1H1D (11736915_at) / Fold change /veh HIST1H1D (11736915_at) / RFU CASKIN2 (11723855_a_at) / Fold change /veh CASKIN2 (11723855_a_at) / RFU LOC730098 (11760151_x_at) / Fold change /veh LOC730098 (11760151_x_at) / RFU OR4N2 (11742367_at) / Fold change /veh OR4N2 (11742367_at) / RFU PRRT2 (11749266_a_at) / Fold change /veh PRRT2 (11749266_a_at) / RFU SNX32 (11753110_a_at) / Fold change /veh SNX32 (11753110_a_at) / RFU CDHR5 (11726645_a_at) / Fold change /veh CDHR5 (11726645_a_at) / RFU RCAN1 (11760418_a_at) / Fold change /veh RCAN1 (11760418_a_at) / RFU FAM167A (11723789_a_at) / Fold change /veh FAM167A (11723789_a_at) / RFU FAM26E (11764081_at) / Fold change /veh FAM26E (11764081_at) / RFU ISYNA1 (11749810_s_at) / Fold change /veh ISYNA1 (11749810_s_at) / RFU ACY1 (11761880_at) / Fold change /veh ACY1 (11761880_at) / RFU 11764098_at / Fold change /veh 11764098_at / RFU SAMD14 (11745864_x_at) / Fold change /veh SAMD14 (11745864_x_at) / RFU NPB (11741838_a_at) / Fold change /veh NPB (11741838_a_at) / RFU TMPRSS6 (11731388_a_at) / Fold change /veh TMPRSS6 (11731388_a_at) / RFU KRTAP10-2 (11738614_at) / Fold change /veh KRTAP10-2 (11738614_at) / RFU ARHGAP8 /// PRR5-ARHGAP8 (11727945_x_at) / Fold change /veh ARHGAP8 /// PRR5-ARHGAP8 (11727945_x_at) / RFU KRTAP5-7 /// NADSYN1 (11734609_at) / Fold change /veh KRTAP5-7 /// NADSYN1 (11734609_at) / RFU RASL12 (11751679_a_at) / Fold change /veh RASL12 (11751679_a_at) / RFU CDKN2B (11736163_a_at) / Fold change /veh CDKN2B (11736163_a_at) / RFU PRF1 (11729649_at) / Fold change /veh PRF1 (11729649_at) / RFU, ZNF638 /// ZNF638-IT1 / Fold change vs veh, ZNF638 /// ZNF638-IT1 / RFU, PANK3 / Fold change vs veh, PANK3 / RFU, SH3YL1 / Fold change vs veh, SH3YL1 / RFU, ZEB2 / Fold change vs veh, ZEB2 / RFU, NRIP1 / Fold change vs veh, NRIP1 / RFU, PTTG1IP / Fold change vs veh, PTTG1IP / RFU, CAPN2 / Fold change vs veh, CAPN2 / RFU, MED14 / Fold change vs veh, MED14 / RFU, SNORA58 / Fold change vs veh, SNORA58 / RFU, C1orf63 / Fold change vs veh, C1orf63 / RFU, LRRFIP1 / Fold change vs veh, LRRFIP1 / RFU, NDUFAF7 / Fold change vs veh, NDUFAF7 / RFU, SLC12A2 / Fold change vs veh, SLC12A2 / RFU, IBTK / Fold change vs veh, IBTK / RFU, ESF1 / Fold change vs veh, ESF1 / Fold change vs veh, TMEM50B / RFU, TAOK1 / Fold change vs veh, TAOK1 / RFU, ACBD3 / Fold change vs veh, ACBD3 / RFU, TMA16 / Fold change vs veh, TMA16 / RFU, RWDD3 / Fold change vs veh, RWDD3 / RFU, BCAT1 / Fold change vs veh, BCAT1 / RFU, EDEM3 / Fold change vs veh, EDEM3 / RFU, TMEM33 / Fold change vs veh, TMEM33 / RFU, WDR75 / Fold change vs veh, WDR75 / RFU, AHCTF1 / Fold change vs veh, AHCTF1 / RFU, TFRC / Fold change vs veh, TFRC / RFU, ZDHHC17 / Fold change vs veh, ZDHHC17 / RFU, NOM1 / Fold change vs veh, NOM1 / RFU, ARL8B / Fold change vs veh, ARL8B / RFU, ZBTB11 / Fold change vs veh, ZBTB11 / RFU, TAMM41 / Fold change vs veh, TAMM41 / RFU, KIAA1704 /// LOC100996395 / Fold change vs veh, KIAA1704 /// LOC100996395 / RFU, ING1 / Fold change vs veh, ING1 / RFU, TRMT61B / Fold change vs veh, TRMT61B / RFU, FUBP3 / Fold change vs veh, FUBP3 / RFU, TP53 / Fold change vs veh, TP53 / RFU, TNKS2 / Fold change vs veh, TNKS2 / RFU, ZFP14 / Fold change vs veh, ZFP14 / RFU, ACTR2 / Fold change vs veh, ACTR2 / RFU, PPP3R1 / Fold change vs veh, PPP3R1 / RFU, PIK3R1 / Fold change vs veh, PIK3R1 / RFU, HNRNPA1 / Fold change vs veh, HNRNPA1 / RFU, RNF170 / Fold change vs veh, RNF170 / RFU, ZNF28 / Fold change vs veh, ZNF28 / RFU, RNGTT / Fold change vs veh, RNGTT / RFU, OGT / Fold change vs veh, OGT / RFU, BRD1 / Fold change vs veh, BRD1 / RFU, MARS / Fold change vs veh, MARS / RFU, ZNF655 / Fold change vs veh, ZNF655 / RFU, FAHD1 / Fold change vs veh, FAHD1 / RFU, BDP1 / Fold change vs veh, BDP1 / RFU, LRRCC1 / Fold change vs veh, LRRCC1 / RFU, ARID1A / Fold change vs veh, ARID1A / RFU, ZNF146 / Fold change vs veh, ZNF146 / RFU, ZNF330 / Fold change vs veh, ZNF330 / RFU, GPN3 / Fold change vs veh, GPN3 / RFU, C9orf123 / Fold change vs veh, C9orf123 / RFU, N4BP2L2 / Fold change vs veh, N4BP2L2 / RFU, ARFIP1 / Fold change vs veh, ARFIP1 / RFU, FAM179B / Fold change vs veh, FAM179B / RFU, BCL10 / Fold change vs veh, BCL10 / RFU, UHRF1BP1L / Fold change vs veh, UHRF1BP1L / RFU, BET1 / Fold change vs veh, BET1 / RFU, CNOT2 / Fold change vs veh, CNOT2 / RFU, ZNF268 / Fold change vs veh, ZNF268 / Fold change vs veh, ZNF507 / RFU, DGCR2 / Fold change vs veh, DGCR2 / RFU, WDSUB1 / Fold change vs veh, WDSUB1 / Fold change vs veh, HSP90B1 /// MIR3652 / RFU, ADSS / Fold change vs veh, ADSS / RFU, GK / Fold change vs veh, GK / RFU, ZNF148 / Fold change vs veh, ZNF148 / RFU, TAF9 / Fold change vs veh, TAF9 / RFU, SLC1A5 / Fold change vs veh, SLC1A5 / RFU, SLMO2 / Fold change vs veh, SLMO2 / RFU, ABCC4 / Fold change vs veh, ABCC4 / RFU, LOC101060439 /// RAP1B / Fold change vs veh, LOC101060439 /// RAP1B / RFU, RFX7 / Fold change vs veh, RFX7 / RFU, GTPBP10 / Fold change vs veh, GTPBP10 / RFU, CNEP1R1 / Fold change vs veh, CNEP1R1 / RFU, BIVM-ERCC5 /// ERCC5 / Fold change vs veh, BIVM-ERCC5 /// ERCC5 / RFU, ILF3 / Fold change vs veh, ILF3 / RFU 11762660_at / Fold change /veh 11762660_at / RFU VCAN (11757783_s_at) / Fold change /veh VCAN (11757783_s_at) / RFU DDX43 (11728927_at) / Fold change /veh DDX43 (11728927_at) / RFU KRT8 (11758188_x_at) / Fold change /veh KRT8 (11758188_x_at) / RFU NKD1 (11759106_at) / Fold change /veh NKD1 (11759106_at) / RFU SRD5A1 (11742802_a_at) / Fold change /veh SRD5A1 (11742802_a_at) / RFU TPSAB1 /// TPSB2 (11721975_s_at) / Fold change /veh TPSAB1 /// TPSB2 (11721975_s_at) / RFU GSTM3 (11746129_a_at) / Fold change /veh GSTM3 (11746129_a_at) / RFU IL23R (11737362_x_at) / Fold change /veh IL23R (11737362_x_at) / RFU TMEM51 (11727254_a_at) / Fold change /veh TMEM51 (11727254_a_at) / RFU PIWIL2 (11732686_x_at) / Fold change /veh PIWIL2 (11732686_x_at) / RFU ORM1 (11744905_x_at) / Fold change /veh ORM1 (11744905_x_at) / RFU CCDC152 (11743942_at) / Fold change /veh CCDC152 (11743942_at) / RFU ECM1 (11717891_a_at) / Fold change /veh ECM1 (11717891_a_at) / RFU IL23R (11748794_a_at) / Fold change /veh IL23R (11748794_a_at) / RFU TNFAIP8L3 (11732012_x_at) / Fold change /veh TNFAIP8L3 (11732012_x_at) / RFU MBOAT4 (11741988_at) / Fold change /veh MBOAT4 (11741988_at) / RFU 11764193_at / Fold change /veh 11764193_at / RFU TMEM53 (11763286_at) / Fold change /veh TMEM53 (11763286_at) / RFU MAGEB2 (11727129_at) / Fold change /veh MAGEB2 (11727129_at) / RFU TMEM200A (11744735_a_at) / Fold change /veh TMEM200A (11744735_a_at) / RFU CCDC152 (11751479_a_at) / Fold change /veh CCDC152 (11751479_a_at) / RFU FAM211A (11726209_a_at) / Fold change /veh FAM211A (11726209_a_at) / RFU RGS16 (11746705_a_at) / Fold change /veh RGS16 (11746705_a_at) / RFU VCAN (11755009_s_at) / Fold change /veh VCAN (11755009_s_at) / RFU RHOB (11743442_s_at) / Fold change /veh RHOB (11743442_s_at) / RFU RGS16 (11720943_a_at) / Fold change /veh RGS16 (11720943_a_at) / RFU RGS16 (11720944_at) / Fold change /veh RGS16 (11720944_at) / RFU, VPS4B / Fold change vs veh, VPS4B / RFU, CREB1 / Fold change vs veh, CREB1 / RFU, DNAJC13 / Fold change vs veh, DNAJC13 / RFU, GNAQ / Fold change vs veh, GNAQ / RFU, CDK5R1 / Fold change vs veh, CDK5R1 / RFU, ZRANB3 / Fold change vs veh, ZRANB3 / RFU, CUL4A / Fold change vs veh, CUL4A / RFU, CCNY / Fold change vs veh, CCNY / RFU, UFL1 / Fold change vs veh, UFL1 / RFU, COG3 / Fold change vs veh, COG3 / RFU, DIAPH2 / Fold change vs veh, DIAPH2 / RFU, SKA2 / Fold change vs veh, SKA2 / RFU, AFF3 / Fold change vs veh, AFF3 / RFU, LMF1 / Fold change vs veh, LMF1 / RFU, IPO11 / Fold change vs veh, IPO11 / RFU, DFFB / Fold change vs veh, DFFB / RFU, FOXP1 / Fold change vs veh, FOXP1 / RFU, CARD8 / Fold change vs veh, CARD8 / RFU, STRN3 / Fold change vs veh, STRN3 / RFU, ADK / Fold change vs veh, ADK / RFU, RASSF2 / Fold change vs veh, RASSF2 / RFU, WIPF1 / Fold change vs veh, WIPF1 / RFU, LARP1B / Fold change vs veh, LARP1B / RFU, RASA1 / Fold change vs veh, RASA1 / RFU, RB1 / Fold change vs veh, RB1 / RFU, PPFIA1 / Fold change vs veh, PPFIA1 / RFU, MAT2A / Fold change vs veh, MAT2A / RFU, CCT5 / Fold change vs veh, CCT5 / RFU, WDR92 / Fold change vs veh, WDR92 / RFU, CUX1 / Fold change vs veh, CUX1 / RFU, TTC7A / Fold change vs veh, TTC7A / RFU, TMEM135 / Fold change vs veh, TMEM135 / RFU, DEPTOR / Fold change vs veh, DEPTOR / RFU, CPM / Fold change vs veh, CPM / RFU, DNAJB6 / Fold change vs veh, DNAJB6 / RFU, CACNA2D3 / Fold change vs veh, CACNA2D3 / RFU, DTX4 / Fold change vs veh, DTX4 / RFU, TFCP2 / Fold change vs veh, TFCP2 / RFU, GMCL1 /// GMCL1P1 / Fold change vs veh, GMCL1 /// GMCL1P1 / RFU, AEBP2 / Fold change vs veh, AEBP2 / RFU, SNHG1 /// SNORD22 /// SNORD25 /// SNORD26 /// SNORD27 /// SNORD28 /// SNORD29 /// SNORD31 / Fold change vs veh, SNHG1 /// SNORD22 /// SNORD25 /// SNORD26 /// SNORD27 /// SNORD28 /// SNORD29 /// SNORD31 / Fold change (Aza/veh), C12orf56 (ProbeSet 11735607_a_at) / Fold change (ACY-1035/veh), C12orf56 (ProbeSet 11735607_a_at) / Fold change (Aza/veh), FGFR1OP (ProbeSet 11751329_s_at) / Fold change (ACY-1035/veh), FGFR1OP (ProbeSet 11751329_s_at) / Fold change (Aza/veh), VPS36 (ProbeSet 11739960_a_at) / Fold change (ACY-1035/veh), VPS36 (ProbeSet 11739960_a_at) / RFU SYPL1 (11715823_x_at) / Fold change /veh SYPL1 (11715823_x_at) / RFU IGFBP7 (11715501_s_at) / Fold change /veh IGFBP7 (11715501_s_at) / RFU REEP3 (11722064_at) / Fold change /veh REEP3 (11722064_at) / RFU IGLL1 (11728026_x_at) / Fold change /veh IGLL1 (11728026_x_at): dose or concentration left out as unconfirmed
Conditions: ProbeSet 11764057_s_at; LIST B

## Nc1ncn([C@@H]2O[C@H](CO)[C@@H](O)[C@H]2O)c(=O)n1 [azacitidine]
  Fold change vs veh, C1orf63: 1.09
